Results on five compounds are retold here after US20260176320A1, “MODULATORS OF G-PROTEIN COUPLED RECEPTORS” (priority 2018, published 2026).

Common to all, as to assay type: cell-based
Experiment [1] has as its target T1, GLP-1R (Homo sapiens, UniProt P43220). Nature of the experiment: PathHunter β-arrestin assay. In outline:
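Luminescence read-out of β-arrestin recruitment (enzyme-fragment complementation detection, 3 h at room temperature in the dark) after 90 min agonist stimulation at 37 °C. Agonists tested as 22-point 2× serial dilutions in duplicate, in medium containing 0.2% BSA.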

In experiment [2] the target is T1, GLP-1R. Nature of the experiment: HitHunter cAMP assay (GLP-1R). Conditions: cAMP; for Emax: read-out: (Emax) GLP-1R. In short, it runs like this: (§1)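 cAMP, luminescence read: agonist 22-pt 2× dilution in DMSO, duplicate, 30 min RT on 10,000 cells/well in 1×HBSS/10 mM HEPES/625 μM IBMX/0.2% BSA; anti-cAMP reagent 1 h RT dark, then O/N RT dark before read.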
On the technique in general: cAMP levels reflect the balance of adenylyl cyclase and phosphodiesterase activity.

Another experiment deals with T2, GIP-R (Homo sapiens, UniProt P48546).
T2 sequence (P48546 22-466): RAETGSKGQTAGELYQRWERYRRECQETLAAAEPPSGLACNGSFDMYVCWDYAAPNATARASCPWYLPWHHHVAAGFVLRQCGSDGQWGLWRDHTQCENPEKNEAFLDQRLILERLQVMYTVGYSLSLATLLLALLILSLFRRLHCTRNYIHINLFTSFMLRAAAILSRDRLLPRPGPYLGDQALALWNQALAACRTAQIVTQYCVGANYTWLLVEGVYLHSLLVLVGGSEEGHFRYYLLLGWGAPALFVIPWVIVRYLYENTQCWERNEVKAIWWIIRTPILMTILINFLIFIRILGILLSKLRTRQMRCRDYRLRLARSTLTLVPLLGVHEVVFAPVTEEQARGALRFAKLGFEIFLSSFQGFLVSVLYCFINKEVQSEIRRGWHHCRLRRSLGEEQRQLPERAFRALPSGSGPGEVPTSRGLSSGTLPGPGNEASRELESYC
Description: HitHunter cAMP assay (GIP-R). The settings on record: cAMP; for Emax: read-out: (Emax) GIP-R. In short, it runs like this:
as §1

[3] abbreviates: PathHunter β-arrestin assay, read-out: β-arrestin activity EC50.
The mark [4] stands for this setting: Table 3A, read-out: EC50 GLP-1R/nM.
The mark [5] stands for this setting: Table 3A, read-out: EC50 GIP-R/nM.

pEC50: −log10 of the molar value. Like-named read-outs stand apart in the source and are kept apart here. Numbered stars: 1 amine (or outer) side, 2 acyl side, 3 side chain; on linkers, the order of the positions; unused ones are H or OH. Square brackets hold non-standard residues; d marks the D form. Side chains are listed from the residue outwards. Peptide text beside a SMILES is read from it. * marks the point of attachment. γGlu = O=C(O)[C@H](CCC(=O)[*:2])N[*:1]; Palmitoyl = CCCCCCCCCCCCCCCC(=O)*; X6 = O=C(CSCC(=O)*)NCCN1CCCCC1=O; Aib = CC(C)(N)C(=O)O

T1 sequence (P43220 24-463): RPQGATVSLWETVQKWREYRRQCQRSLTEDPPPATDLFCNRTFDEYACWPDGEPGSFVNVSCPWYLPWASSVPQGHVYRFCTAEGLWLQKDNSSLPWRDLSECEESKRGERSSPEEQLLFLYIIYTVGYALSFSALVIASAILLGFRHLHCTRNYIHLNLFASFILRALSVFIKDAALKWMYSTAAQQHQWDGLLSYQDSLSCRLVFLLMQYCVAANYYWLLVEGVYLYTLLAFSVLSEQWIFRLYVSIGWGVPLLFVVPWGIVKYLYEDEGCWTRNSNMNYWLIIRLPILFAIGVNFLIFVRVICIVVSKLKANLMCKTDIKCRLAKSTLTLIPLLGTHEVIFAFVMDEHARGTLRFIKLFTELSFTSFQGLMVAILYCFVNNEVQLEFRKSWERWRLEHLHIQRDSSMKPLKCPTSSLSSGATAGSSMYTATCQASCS

As a reminder, the pEC50 is the EC50 on a negative log10 scale, so that one unit is a factor of ten. In general, Emax refers to the size of the effect at its maximum, as opposed to the concentration needed. Regarding `CCCCCCCCCCCCCCCC(=O)N[C@@H](CCC(=O)NCCCC[C@H](NC(=O)[C@H](CO)NC(=O)[C@@H]1CCCN1C(=O)[C@@H]1CCCN1C(=O)[C@@H]1CCCN1C(=O)[C@H](C)NC(=O)CNC(=O)[C@H](CO)NC(=O)[C@H](CO)NC(=O)[C@@H]1CCCN1C(=O)CNC(=O)CNC(=O)[C@H](C)NC(=O)[C@H](CC(C)C)NC(=O)[C@H](CC(C)C)NC(=O)[C@H](Cc1c[nH]c2ccccc12)NC(=O)[C@H](CC(N)=O)NC(=O)[C@@H](NC(=O)[C@H](Cc1ccccc1)NC(=O)[C@H](CCC(=O)O)NC(=O)C(C)(C)NC(=O)[C@H](C)NC(=O)[C@H](C)NC(=O)[C@H](CCC(N)=O)NC(=O)[C@H](CCCCN)NC(=O)[C@H](CC(=O)O)NC(=O)[C@H](CC(C)C)NC(=O)[C@H](Cc1ccc(O)cc1)NC(=O)[C@@H](NC(=O)[C@H](CO)NC(=O)[C@H](Cc1ccc(O)cc1)NC(=O)[C@H](CC(=O)O)NC(=O)[C@H](CO)NC(=O)[C@@H](NC(=O)[C@H](Cc1ccccc1)NC(=O)[C@@H](NC(=O)CNC(=O)[C@H](CCC(=O)O)NC(=O)CCNC(=O)CCN1CCCC1=O)[C@@H](C)O)[C@@H](C)O)[C@@H](C)CC)C(C)C)C(N)=O)C(=O)O` [Compound 265], at GLP-1R [1] (setting [3]), the negative-log EC50 (pEC50) is > 8.00. Besides, the Emax on GLP-1R [2] (Table 3A) was found to be 100%; at GIP-R (Table 3A), 80%. The EC50 on GLP-1R [2] (setting [4]) is < 0.1 nM; at GIP-R (setting [5]), 0.1 to 1 nM.
For `CCCCCCCCCCCCCCCC(=O)N[C@@H](CCC(=O)NCCCC[C@H](NC(=O)[C@H](CO)NC(=O)[C@@H]1CCCN1C(=O)[C@@H]1CCCN1C(=O)[C@@H]1CCCN1C(=O)[C@H](C)NC(=O)CNC(=O)[C@H](CO)NC(=O)[C@H](CO)NC(=O)[C@@H]1CCCN1C(=O)CNC(=O)CNC(=O)[C@H](C)NC(=O)[C@H](CC(C)C)NC(=O)[C@H](CC(C)C)NC(=O)[C@H](Cc1c[nH]c2ccccc12)NC(=O)[C@H](CC(N)=O)NC(=O)[C@@H](NC(=O)[C@H](Cc1ccccc1)NC(=O)[C@H](CCC(=O)O)NC(=O)C(C)(C)NC(=O)[C@H](C)NC(=O)[C@H](C)NC(=O)[C@H](CCC(N)=O)NC(=O)[C@H](CCCCN)NC(=O)[C@H](CC(=O)O)NC(=O)[C@H](CC(C)C)NC(=O)[C@H](Cc1ccc(O)cc1)NC(=O)[C@@H](NC(=O)[C@H](CO)NC(=O)[C@H](Cc1ccc(O)cc1)NC(=O)[C@H](CC(=O)O)NC(=O)[C@H](CO)NC(=O)[C@@H](NC(=O)[C@H](Cc1ccccc1)NC(=O)[C@@H](NC(=O)CNC(=O)[C@H](CCC(=O)O)NC(=O)C(C)(C)NC(=O)CN1CCCCC1=O)[C@@H](C)O)[C@@H](C)O)[C@@H](C)CC)C(C)C)C(N)=O)C(=O)O` [Compound 209], in that order: 6.00 to 8.00, 94%, 27%, < 0.1 nM and 10 to 100 nM.
In the case of `CCCCCCCCCCCCCCCC(=O)N[C@@H](CCC(=O)NCCCC[C@H](NC(=O)[C@H](CO)NC(=O)[C@@H]1CCCN1C(=O)[C@@H]1CCCN1C(=O)[C@@H]1CCCN1C(=O)[C@H](C)NC(=O)CNC(=O)[C@H](CO)NC(=O)[C@H](CO)NC(=O)[C@@H]1CCCN1C(=O)CNC(=O)CNC(=O)[C@H](C)NC(=O)[C@H](CC(C)C)NC(=O)[C@H](CC(C)C)NC(=O)[C@H](Cc1c[nH]c2ccccc12)NC(=O)[C@H](CC(N)=O)NC(=O)[C@@H](NC(=O)[C@H](Cc1ccccc1)NC(=O)[C@H](CCC(=O)O)NC(=O)C(C)(C)NC(=O)[C@H](C)NC(=O)[C@H](C)NC(=O)[C@H](CCC(N)=O)NC(=O)[C@H](CCCCN)NC(=O)[C@H](CC(=O)O)NC(=O)[C@H](CC(C)C)NC(=O)[C@H](Cc1ccc(O)cc1)NC(=O)[C@@H](NC(=O)[C@H](CO)NC(=O)[C@H](Cc1ccc(O)cc1)NC(=O)[C@H](CC(=O)O)NC(=O)[C@H](CO)NC(=O)[C@@H](NC(=O)[C@H](Cc1ccccc1)NC(=O)[C@@H](NC(=O)CNC(=O)[C@H](CC(=O)O)NC(=O)CSCC(=O)NCCN1CCCCC1=O)[C@@H](C)O)[C@@H](C)O)[C@@H](C)CC)C(C)C)C(N)=O)C(=O)O` [Compound 217] (X6-DGTFTSDYSIYLDKQAA[Aib]EFVNWLLAGGPSSGAPPPSK([γGlu-Palmitoyl])-NH2), on GLP-1R [1] (setting [3]), the negative logarithm of the EC50 (pEC50) is < 6.00. Also, the Emax at GLP-1R [2] (Table 3A) came to 97%; at GIP-R (Table 3A), 58%. The EC50 at GLP-1R [2] (setting [4]) was < 0.1 nM; on GIP-R (setting [5]) it was 1 to 10 nM.
Take `CC[C@H](C)[C@H](NC(=O)[C@H](CO)NC(=O)[C@H](Cc1ccc(O)cc1)NC(=O)[C@H](CC(=O)O)NC(=O)[C@H](CO)NC(=O)[C@@H](NC(=O)[C@H](Cc1ccccc1)NC(=O)[C@@H](NC(=O)CNC(=O)[C@H](CCC(=O)O)NC(=O)C(C)(C)C(=O)NCCN1C(=O)c2ccccc2C1=O)[C@@H](C)O)[C@@H](C)O)C(=O)N[C@@H](Cc1ccc(O)cc1)C(=O)N[C@@H](CC(C)C)C(=O)N[C@@H](CC(=O)O)C(=O)N[C@@H](CCCCN)C(=O)N[C@@H](CCC(N)=O)C(=O)N[C@@H](C)C(=O)N[C@@H](C)C(=O)NC(C)(C)C(=O)N[C@@H](CCC(=O)O)C(=O)N[C@@H](Cc1ccccc1)C(=O)N[C@H](C(=O)N[C@@H](CC(N)=O)C(=O)N[C@@H](Cc1c[nH]c2ccccc12)C(=O)N[C@@H](CC(C)C)C(=O)N[C@@H](CC(C)C)C(=O)N[C@@H](C)C(=O)NCC(=O)NCC(=O)N1CCC[C@H]1C(=O)N[C@@H](CO)C(=O)N[C@@H](CO)C(=O)NCC(=O)N[C@@H](C)C(=O)N1CCC[C@H]1C(=O)N1CCC[C@H]1C(=O)N1CCC[C@H]1C(=O)N[C@@H](CO)C(=O)N[C@@H](CCCCN)C(N)=O)C(C)C` [Compound 140]: the pEC50 at GLP-1R [1] was < 6.00. In addition, the EC50 at GLP-1R [2] (EC50 GLP-1R/nM, Table 3) was < 0.1 nM; on GLP-1R [2] (EC50 GLP-1R/nM, Table 3A) it was < 0.1 nM; at GIP-R (EC50 GIP-R/nM, Table 3), 1 to 10 nM; on GIP-R (EC50 GIP-R/nM, Table 3A) it was 1 to 10 nM. The Emax at GLP-1R [2] (Table 3) stood at 107%; on GLP-1R [2] (Table 3A) it was 107%; at GIP-R (Table 3), 63%; on GIP-R (Table 3A) it was 63%.
`CC[C@H](C)[C@H](NC(=O)[C@H](CO)NC(=O)[C@H](Cc1ccc(O)cc1)NC(=O)[C@H](CC(=O)O)NC(=O)[C@H](CO)NC(=O)[C@@H](NC(=O)[C@H](Cc1ccccc1)NC(=O)[C@@H](NC(=O)CNC(=O)[C@H](CCC(=O)O)NC(=O)[C@H]1CC[C@@H](C(=O)NCCN2C(=O)CSC2=O)CC1)[C@@H](C)O)[C@@H](C)O)C(=O)N[C@@H](Cc1ccc(O)cc1)C(=O)N[C@@H](CC(C)C)C(=O)N[C@@H](CC(=O)O)C(=O)N[C@@H](CCCCN)C(=O)N[C@@H](CCC(N)=O)C(=O)N[C@@H](C)C(=O)N[C@@H](C)C(=O)NC(C)(C)C(=O)N[C@@H](CCC(=O)O)C(=O)N[C@@H](Cc1ccccc1)C(=O)N[C@H](C(=O)N[C@@H](CC(N)=O)C(=O)N[C@@H](Cc1c[nH]c2ccccc12)C(=O)N[C@@H](CC(C)C)C(=O)N[C@@H](CC(C)C)C(=O)N[C@@H](C)C(=O)NCC(=O)NCC(=O)N1CCC[C@H]1C(=O)N[C@@H](CO)C(=O)N[C@@H](CO)C(=O)NCC(=O)N[C@@H](C)C(=O)N1CCC[C@H]1C(=O)N1CCC[C@H]1C(=O)N1CCC[C@H]1C(=O)N[C@@H](CO)C(=O)N[C@@H](CCCCN)C(N)=O)C(C)C` [Compound 182]: the pEC50 on GLP-1R [1] (setting [3]) was < 6.00. Further, the Emax at GLP-1R [2] (Table 3) and on GLP-1R [2] (Table 3A) was 96% throughout. In addition, the EC50 at GLP-1R [2] (Table 3, read-out: EC50 GLP-1R/nM) fell in the range of 0.1 to 1 nM; on GLP-1R [2] (setting [4]), 0.1 to 1 nM; at GIP-R (Table 3, read-out: EC50 GIP-R/nM), 100 to 1000 nM; on GIP-R (setting [5]), 100 to 1000 nM. The Emax at 1 µM on GIP-R (read-out: (Emax) GIP-R at 1 μM, Table 3) worked out at 12%; on GIP-R (read-out: (Emax) GIP-R at 1 μM, Table 3A), 12%.
